Test results from PMC10447463, “Data-mining unveils structure–property–activity correlation of viral infectivity enhancing self-assembling peptides” (Nature Communications, 2023).
Read-outs that look alike come from different tables or passages of the source.

Assays:
[1] = Zeta-potential measurement; type: physicochemical
In short: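 PBS pH 7.4, 1 mg/mL peptide (DMSO stock), 1 d RT aggregation; diluted in 1 mM KCl pre-read; mobility → zeta (Smoluchowski); n = 3, 2 expts averaged.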

[2] = β-sheet content by ATR-FT-IR; type: physicochemical; details: for b -sheet / %: Fig. S7 panel A, β-sheet content by ATR-FT-IR
Description: For ATR FT–IR spectroscopy measurements, 200 µL of the respective 1 mg/mL PNF solution was lyophilized and the resulting powder used for measurement. All spectra were recorded on a Bruker Tensor 27 spectrometer with a diamond crystal as ATR element (PIKE MiracleTM, spectral resolution 2 cm^-1). Every sample was measured with 64 scans. Data were analyzed with OriginLab software and calculation of β–sheet content was conducted according to a previous report. TEM. For TEM measurements 5 µL of PNF fibrils (1 mg/mL) were placed on copper grids coated with carbon and formvar layer (300 mesh, Plano GmbH). After 10 min incubation time, the grids were staining with 4% uranyl acetate solution for 2.5 min and washed with water. Measurements were performed on a Jeol 1400 electron microscope with 120 kV acceleration voltage. CR Assay. For the determination of the amount of peptide monomer converting into nanostructures the amine reactive dye fluorescamine was used analogous to a previous reported protocol. Briefly, 100 µL of the preformed PNF solution was centrifuged in a Vivaspin 500 tube (3 kDa MWCO) to separate fibers from free peptide monomer (16200 x g, 4 °C, 45 min). The filtrate and 100 μL of the non-filtered PNF sample were lyophilized and dissolved in 30 μL DMSO. 10 μL of the filtrate and non-filtered DMSO samples were submitted in a black UV Star® 384 microliter well–plates (Greiner bio–one) and 3 μL of the fluorescamine solution (10 mg/mL, DMSO) was added to measure the fluorescence enhancement. After 20 min of incubation at RT, fluorescence was recorded on an Infinite® M1000 PRO microplate reader (Tecan) at λem = 470 nm upon excitation at λex = 365 nm with 10 nm bandwidths and multiple reads per well (3×3). Measurements were repeated in triplicates and averaged with standard deviation. All values were calculated as n-fold fluorescence enhancement (DMSO only as a reference was set to 1). The conversion rate CR was defined according to the equation Eq. (3).3 CR=100−100×fluorescenceintensityfiltrate/fluorescenceintensityoriginal[%]

[3] = tested on: HIV-1 infection of TZM-bl cells; assay: HIV-1 infectivity enhancement assay, β-galactosidase luminescence; type: cell-based; details: for Rel-EFC: infection relative to EF-C (QCKIKQIINMWQ = 1); for Log10 Infection Rel EFC: log10 of infection relative to EF-C; for Log Infectivity: Log10 infection relative to EF-C, asymmetric std dev errors; for Log10 Infection Rel EF-C: HIV-1 infection of TZM-bl cells; for Abs. Inf.: β-galactosidase luminescence; for Log10 Inf. rel. to EF-C: log10 of HIV-1 infection of TZM-bl cells relative to EF-C (EF-C = 0); for Log10 of Rel to EFC (Feb2021): Log10 of infection relative to EF-C, all peptides of FigS16
[4] = Turbidity, derived count rate of scattered light; type: physicochemical; details: for Count Rate: derived count rate of scattered light (turbidity); for Log10 Count Rate: turbidity, derived count rate of scattered light, data of Figure 2D
[5] = Turbidity, derived count rate of scattered light; type: physicochemical; details: for Count Rate / kcps: derived count rate of scattered light at 633 nm, 173°, from zeta-potential measurement, 0.1 mg/mL in 1 mM KCl after 1 d at 1 mg/mL in PBS, turbidity / microscopic aggregation, mean of triplicate
In short: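 One-day room-temperature aggregation at 1 mg/mL in PBS (pH 7.4) preceded measurement; samples then went into 1 mM KCl. Triplicates per sample, two independent experiments averaged.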

[6] = zeta-potential of peptide, source data of Figure 2C
[7] = zeta-potential of the peptide assemblies, mean, Figure 3A source data
[8] = Fig. S7 panel A (plotted against β-sheet content), TZM-bl cells
[9] = Log10 of infection rate relative to EF-C, Figure 3A source data
[10] = infection rate relative to EF-C, log10, data of Figure 2D
[11] = infection rate relative to EF-C, log10, source data of Figure 2C
[12] = absolute infection signal, HIV-1 on TZM-bl cells
[13] = Log10 of derived count rate of scattered light (turbidity)
[14] = turbidity, Log10 of derived count rate of scattered light, Figure 3A source data
[15] = turbidity, log10 of derived count rate of scattered light
[16] = zeta potential of peptide assemblies
[17] = Fig. S7 panel B (plotted against CR), rounded to two decimals, TZM-bl cells
[18] = log10 of derived count rate of scattered light (turbidity)
[19] = absolute HIV-1 infection signal, TZM-bl cells

| Substance | Zeta-Pot. [1] | Zeta-Potential / mV [1, 6] [mV] | Zeta-Potential / mV [1, 7] [mV] | b -sheet / % [2] [%] | Rel-EFC ([3]; 1.3 µM peptide) | Log10 Infection Rel EFC ([3]; 1.3 µM peptide) | Log Infectivity [3, 8] | Log10 Infection Rel EF-C [3, 9] | Log10 Infection Rel EF-C [3, 10] | Log10 Infection Rel EF-C [3, 11] | Count Rate [4] | Log10 Count Rate [4] | Log10 Count Rate [5, 13] | Count Rate / kcps [5] [kcps] | Log10 Count Rate [5, 14] | Zeta-Pot. [1, 16] | Log Infectivity [3, 17] | Log10 Count Rate [5, 18] | Log10 of Rel to EFC (Feb2021) [3] | also measured |
| --- | --- | --- | --- | --- | --- | --- | --- | --- | --- | --- | --- | --- | --- | --- | --- | --- | --- | --- | --- | --- |
| KFKFQFN | 12.7 | 10.12 | 12.7 | 38.13 | 0,02 | -1,74 | -1.744 | -1.74 | -1.744 | -1.744 | 50.7 | 1.705 | 1.705 | 51 | 1.705 | – | – | – | – | Zeta pot. / mV ([1]; 1 mg/mL in PBS pH 7.4 from 10 mg/mL DMSO stock, 1 d RT, 60 µL diluted in 600 µL 1 mM KCl, Zetasizer Nano ZS, Smoluchowski, mean of triplicate): 12.7 mV; ß-sheet / % ([2]; ATR-FT-IR of lyophilised 1 mg/mL PNF solution, peak integral ratio 1625-1635 cm-1, measured once): 38%; Inf. rel. EF-C ([3]; HIV-1 infection relative to EF-C, Fig 23 plot, panels A and B, mean of 3 values): 0.01184; Inf. rel. EF-C ([3]; HIV-1 infection relative to EF-C, Fig 23 plot, single data point, replicate 2): 0.01096; Inf. rel. EF-C ([3]; HIV-1 infection relative to EF-C, Fig 23 plot, single data point, replicate 3): 0.005798; Abs. Inf. / RLU s-1 ([3]; absolute infection rate, peptide 1.3 µM on cells, virus preincubated 10 min with fibrils, read 3 days post infection, mean of triplicate): 270 RLU s-1; Abs. Inf. [3, 12]: 270; Log10 Inf. rel. to EF-C [3]: -1.744; Inf. rel. EF-C ([3]; n-fold infection vs virus only, relative to that of EF-C, 1.3 µM peptide): 0.02; Log10 Count Rate ([5]; logarithm of count rate in kcps): 1.7; Log10 Count Rate [5, 15]: 1.705 |
| KIKQII | – | -6.459 | -12.67 | 38.67 | 0 | -2,31 | -2.308 | -2.31 | -2.308 | -2.308 | 122 | 2.086 | 2.086 | 122 | 2.086 | -12.67 | -2.31 | 2.086 | – | – |
| MKIKIQINMWQ | – | 11.2 | 10.8 | 39.2 | 0,42 | -0,38 | -0.378 | -0.38 | -0.378 | -0.378 | 1475 | 3.169 | 3.169 | 1475 | 3.169 | 10.8 | – | 3.169 | -0.38 | – |
| KIKIKIKI | – | 5.997 | 5.46 | 40.46 | 0,03 | -1,49 | -1.487 | -1.49 | -1.487 | -1.487 | 155.1 | 2.191 | 2.191 | 155 | 2.191 | 5.46 | – | 2.191 | – | – |
| CKIKIQINMW | 18.3 | 18.43 | 18.3 | 42.9134 | 1,29 | 0,11 | 0.1122 | 0.11 | 0.1122 | 0.1122 | 4915 | 3.692 | 3.692 | 4915 | 3.692 | – | – | 3.692 | 0.11 | Abs. Inf. [3, 19]: 7253 |
| KIKIQII | – | 6.302 | 5.61 | 44.64 | 0,02 | -1,73 | -1.729 | -1.73 | -1.729 | -1.729 | 1039 | 3.017 | 3.017 | 1039 | 3.017 | 5.61 | – | 3.017 | – | – |
| QCKFKQFFNM | 13.67 | 15.12 | 13.67 | 41.8396 | 0,43 | -0,37 | -0.3706 | -0.37 | -0.3706 | -0.3706 | 10384.7 | 4.016 | 4.016 | 10385 | 4.016 | – | -0.37 | – | -0.37 | Abs. Inf. [3, 12]: 5847; Log10 Inf. rel. to EF-C [3]: -0.3706; Log10 Count Rate [5, 15]: 4.016 |
| CEFEFQFNMWQ | – | -24.5 | -34.23 | 51.48 | 0,14 | -0,85 | -0.8509 | -0.85 | -0.8509 | -0.8509 | 186.3 | 2.27 | 2.27 | 186 | 2.27 | -34.23 | -0.85 | 2.27 | -0.85 | – |
| EIEIQINM | -23.33 | -21.58 | -23.33 | 53.87 | 0,04 | -1,44 | -1.44 | -1.44 | -1.44 | -1.44 | 134 | 2.127 | 2.127 | 134 | 2.127 | – | -1.44 | 2.127 | – | Abs. Inf. [3, 19]: 203.3; Abs. Infection at 0.26 µM ([3]; peptide 0.26 µM, mean of n = 3, Figure 4A): 203.3; Infect 1 0.26 µM ([3]; peptide 0.26 µM, replicate 1, absolute infection signal, Figure 4A): 203.33; Infect 2 0.26 µM ([3]; peptide 0.26 µM, replicate 2, absolute infection signal, Figure 4A): 123.33; Infect 3 0.26 µM ([3]; peptide 0.26 µM, replicate 3, absolute infection signal, Figure 4A): 283.33; Abs. Infection at 1.3 µM ([3]; peptide 1.3 µM, mean of n = 3, Figure 4A): 203.3; Infect 1 .3 µM ([3]; peptide 1.3 µM, replicate 1, absolute infection signal, Figure 4A): 253.33; Infect 2 1.3µM ([3]; peptide 1.3 µM, replicate 2, absolute infection signal, Figure 4A): 173.33; Infect 3 1.3 µM ([3]; peptide 1.3 µM, replicate 3, absolute infection signal, Figure 4A): 183.33 |
